Measurements reported in patent publication US20100143405A1, “Immunotherapy of virus infection” (priority 2004, published 2010).

What was measured:
[1] = tested on: CTL epitope-specific CD8^+ T cells; design: species or system BALB/c mice; settings: mouse, in vivo
[2] = tested on: PBMC; assay: PBMC proliferation induced by Th epitope P25; assay type: cell-based, human
From the text: Preferably, the Th cell epitope is P25, KLIPNASLIENCTKAEL (SEQ ID No:8), from the F protein of morbillivirus (Ghosh et al, 2001). This epitope is promiscuous in all outbred dogs that have been studied by the inventors so far and also in all strains of mice and cattle examined (unpublished results). This epitope is also able to induce PBMC proliferation in at least 50% of blood samples extracted from human volunteers. The F protein is conserved across most morbilliviruses and in the case of P25 is conserved in canine distemper virus, rhinderpest and measles viruses.

| Substance | antigen-specific CD8+ T cell responses compared with non-lipidated peptide [1] | antigen-specific CD8+ T cells in lung and spleen compared with non-lipidated peptide [1] | blood samples from human volunteers in which PBMC proliferation is induced [2] |
| --- | --- | --- | --- |
| GALNNRFQIKGVELKS-K(Pam2CSS)-TYQRTRALV [lipopeptide] | not enhanced | more antigen-specific CD8^+ T cells | – |
| KLIPNASLIENCTKAEL (Morbillivirus) [P25] | – | – | at least 50% |
